Test results published in patent US10881642B2, “Autophagy enhancer and use thereof” (Industry-Academic Cooperation Foundation, Yonsei University, priority 2016, dated 2021).

Tested on: ob/ob mice
Test: Metabolic profile of ob/ob mice
Type: in vivo
Description: FIG. 6A and FIG. 6B each indicates the fasting blood sugar and the body weights respectively from ob/ob mice which were treated with vehicle control or (50 mg/kg/2 days) for 8 weeks. FIG. 6C indicates the amount of feed intake from ob/ob mice which were treated with vehicle control or for 8 weeks. FIG. 6D and FIG. 6E each indicates the IPGTT results and AUC value measured after the 8 week administration. FIG. 6F and FIG. 6G indicates the ITT results and AUC value measured after the 8 week administration. FIG. 6H indicates the fasting blood sugar after the 8 week administration. FIG. 6I indicates the concentration of insulin after the 8 week administration. FIG. 6J indicate the result of HOMA-IR measured after the 8 week administration. FIG. 6K indicates the results the Insulinogenic index measured after the 8 week administration. Error bars, S.D. *, P<0.05; **, P<0.01; ***, P<0.001. Students t-test and one-way ANOVA.
FIG. 8A is the result of Hematoxylin-Eosin stained liver section from ob/ob mice treated with MSL compound or vehicle for 8 weeks. FIG. 8B is the result of measuring the concentration of TG using free glycerol reagent containing lipase in the lipid sample extracted using a mixture of chloroform/ethanol from the liver of ob/ob mice. FIG. 8C is the result of blood chemistry profile analyzed using chemical analyzer from serum sample obtained from ob/ob mice treated with MSL compound or vehicle for 8 weeks. FIG. 8D is the result of Hematoxylin-Eosin stained white adipose tissue section from ob/ob mice treated with MSL compound or vehicle for 8 weeks. FIG. 8E is the immuno-stained result of F4/80+ cells from white adipose tissue (left) and the quantification result of adipose cell F4/80+ CLS (right) indicated as a frequency of CLS (crown-like structures) in the white adipose tissue of the mice as described above. FIG. 8F is the result of quantifying the expression of WAT gene from the mice as described above using RT-PCR. Error bars, S.D. *, P<0.05; **, P<0.01; ***, P<0.001.
FIG. 11A is the result of fasting glucose concentration of ob/ob mice administered with vehicle control or MSL-7 (50 mg/kg/2 days) for 8 weeks. FIG. 11B is the body weight monitored of the mice of FIG. 11A. FIG. 11C is the result of experiments performed at 8 weeks after the administration of IPGTT (FIG. 1 IC) and ITT (FIG. 11D). FIG. 11E is the results of measuring blood chemistry profile of the ob/ob mice administered with vehicle control or MSL-7 compound for 8 weeks using chemical analyzer. Error bars, S.D. *, P<0.05; **, P<0.01; ***, P<0.001. Students t-test and one-way ANOVA. […]
We next studied whether MSL can activate autophagic flux in vivo. When we administered MSL after pretreatment with leupeptin (Ueno, T et al. (1991) Membrane markers of endoplasmic reticulum preserved in autophagic vacuolar membranes isolated from leupeptin-administered rat liver. J Biol Chem 266, 18995-18999), LC3-I to -II conversion was increased in the liver, supporting that MSL can increase autophagic flux in vivo. We next studied whether MSL administration can improve metabolic profile associated with obesity. We treated ob/ob mice with MSL at 50 mg/kg for 8 weeks.

## COc1oc(-c2ccccc2Cl)nc1S(=O)(=O)c1ccccc1 [MSL-7, 2-(2-chlorophenyl)-5-methoxy-4-(phenylsulfonyl) oxazole]
50 mg/kg, 8 weeks
  body weight: without significant effect on body weight
  non-fasting blood glucose level: significantly improved
8 weeks
  glucose tolerance (IPGTT): significantly improved
  insulin sensitivity (ITT): significantly improved

## CSc1oc(-c2ccccc2)nc1S(=O)(=O)c1ccc(F)cc1 [MSL]
50 mg/kg, 8 weeks
  Food intake: not affected
  body weight: not affected
  non-fasting blood glucose level: significantly decreased
8 weeks
  AUC of IPGTT and ITT: reduced
  Fasting blood glucose levels: significantly improved
  HOMA-IR index: slightly decreased
  Serum ALT/ASL levels: significantly reduced
  glucose tolerance (IPGTT): significant improvement
  insulin sensitivity (ITT): significant improvement
  number of crown-like structures (CLSs) in WAT: significantly decreased
8 weeks, H&E
  accumulation of lipid droplets in the liver: apparently reduced
WAT, 8 weeks
  expression of inflammatory markers (Tnfa, I-16, II-1β, F4/80), real-time RT-PCR: significantly reduced
Data not shown
  liver lipid content (Oil Red O staining): decreased
